Test results as given in ChEMBL document CHEMBL1157354, “Asymmetric synthesis of inhibitors of glycinamide ribonucleotide transformylase” (J Med Chem, 2008).

Columns and labels:
[1] = molecular target: Bifunctional purine biosynthesis protein ATIC (Homo sapiens, UniProt P31939); experiment: Inhibition of human recombinant AICAR transformylase
CCRF-CEM [2] = experiment: Cytotoxicity against folyl-poly-glutamate synthetase-deficient human CCRF-CEM cells in absence of thymidine and hypoxanthine
CCRF-CEM [3] = experiment: Cytotoxicity against human CCRF-CEM cells in absence of thymidine and presence of hypoxanthine
CCRF-CEM [4] = experiment: Cytotoxicity against human CCRF-CEM cells in presence of thymidine and absence of hypoxanthine
CCRF-CEM [5] = experiment: Cytotoxicity against human CCRF-CEM cells in absence of thymidine and hypoxanthine
CCRF-CEM [6] = experiment: Cytotoxicity against human CCRF-CEM cells expressing reduced folate carrier in absence of thymidine and hypoxanthine
[7] = molecular target: T1, Trifunctional purine biosynthetic protein adenosine-3 (Homo sapiens, UniProt P22102); experiment: Inhibition of human recombinant GAR transformylase
T1 sequence (P22102 whole entry): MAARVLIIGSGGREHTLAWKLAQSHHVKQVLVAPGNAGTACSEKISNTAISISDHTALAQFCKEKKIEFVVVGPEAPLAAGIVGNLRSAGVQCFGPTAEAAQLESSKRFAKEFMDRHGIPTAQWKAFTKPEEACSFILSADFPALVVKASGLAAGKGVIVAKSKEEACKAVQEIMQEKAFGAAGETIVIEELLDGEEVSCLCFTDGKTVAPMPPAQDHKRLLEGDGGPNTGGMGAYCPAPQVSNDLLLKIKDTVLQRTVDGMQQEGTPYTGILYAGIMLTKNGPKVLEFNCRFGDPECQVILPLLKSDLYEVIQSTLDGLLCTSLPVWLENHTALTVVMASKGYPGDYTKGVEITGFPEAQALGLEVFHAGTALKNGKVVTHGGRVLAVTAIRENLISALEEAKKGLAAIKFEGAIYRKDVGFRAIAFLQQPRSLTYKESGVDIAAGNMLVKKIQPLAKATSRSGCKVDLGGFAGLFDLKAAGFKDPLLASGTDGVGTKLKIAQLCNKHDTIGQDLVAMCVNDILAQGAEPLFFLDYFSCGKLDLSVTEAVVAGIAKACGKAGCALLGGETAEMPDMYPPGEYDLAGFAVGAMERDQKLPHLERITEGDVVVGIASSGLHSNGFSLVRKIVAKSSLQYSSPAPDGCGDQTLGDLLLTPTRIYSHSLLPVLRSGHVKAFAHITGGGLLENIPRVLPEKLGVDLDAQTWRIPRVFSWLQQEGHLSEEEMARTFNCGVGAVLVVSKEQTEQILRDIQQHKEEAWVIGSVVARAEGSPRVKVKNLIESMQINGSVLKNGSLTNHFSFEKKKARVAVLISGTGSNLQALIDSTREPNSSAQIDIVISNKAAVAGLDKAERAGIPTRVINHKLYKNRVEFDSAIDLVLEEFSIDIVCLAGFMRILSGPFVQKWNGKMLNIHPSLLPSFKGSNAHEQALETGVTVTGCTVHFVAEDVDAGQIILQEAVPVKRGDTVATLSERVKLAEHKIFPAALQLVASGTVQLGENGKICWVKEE

Sequence of Bifunctional purine biosynthesis protein ATIC (P31939 whole entry): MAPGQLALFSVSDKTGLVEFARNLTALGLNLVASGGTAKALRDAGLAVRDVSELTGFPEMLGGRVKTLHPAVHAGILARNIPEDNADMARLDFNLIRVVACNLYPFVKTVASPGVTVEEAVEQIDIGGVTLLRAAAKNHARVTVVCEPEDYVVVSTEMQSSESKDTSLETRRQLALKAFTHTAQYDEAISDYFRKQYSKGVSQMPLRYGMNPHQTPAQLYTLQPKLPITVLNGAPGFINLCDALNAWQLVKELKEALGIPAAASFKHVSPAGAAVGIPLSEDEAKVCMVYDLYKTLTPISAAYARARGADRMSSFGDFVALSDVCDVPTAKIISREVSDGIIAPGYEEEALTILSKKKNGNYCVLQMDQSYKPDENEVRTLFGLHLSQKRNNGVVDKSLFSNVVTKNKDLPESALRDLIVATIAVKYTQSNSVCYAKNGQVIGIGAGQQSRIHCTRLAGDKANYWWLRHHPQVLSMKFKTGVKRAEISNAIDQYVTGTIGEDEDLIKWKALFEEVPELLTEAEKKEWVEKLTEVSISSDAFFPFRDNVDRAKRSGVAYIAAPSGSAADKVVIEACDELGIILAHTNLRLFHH

| SMILES | Ki [1] [µM] | IC50 (CCRF-CEM [2]) [µM] | IC50 (CCRF-CEM [3]) [µM] | IC50 (CCRF-CEM [4]) [nM] | IC50 (CCRF-CEM [5]) [nM] | IC50 (CCRF-CEM [6]) [nM] | Ki [7] [nM] |
| --- | --- | --- | --- | --- | --- | --- | --- |
| Nc1nc(N)c(CCCC(C(=O)C(F)(F)F)c2ccc(C(=O)N[C@@H](CCC(=O)O)C(=O)O)cc2)c(=O)[nH]1 (some centres not stated) | > 100 | > 10 | > 10 | 17 | 16 | – | – |
| CS[C@@H](CCCc1c(N)nc(N)[nH]c1=O)c1ccc(C(=O)N[C@@H](CCC(=O)O)C(=O)O)cc1 | > 100 | 5 | > 10 | 70 | 50 | 60 | – |
| CO[C@H](CCCc1c(N)nc(N)[nH]c1=O)c1ccc(C(=O)N[C@@H](CCC(=O)O)C(=O)O)cc1 | > 100 | 6 | > 10 | 700 | 500 | 600 | – |
| Nc1nc(N)c(CCCC2(c3ccc(C(=O)N[C@@H](CCC(=O)O)C(=O)O)cc3)SCCCS2)c(=O)[nH]1 | 20 | – | > 10 | > 100000 | > 100000 | – | – |
| Nc1nc(N)c(CCC[C@@H](O)c2ccc(C(=O)N[C@@H](CCC(=O)O)C(=O)O)cc2)c(=O)[nH]1 | > 100 | > 10 | > 10 | 5700 | 2400 | – | 1100 |
| CS[C@H](CCCc1c(N)nc(N)[nH]c1=O)c1ccc(C(=O)N[C@@H](CCC(=O)O)C(=O)O)cc1 | > 100 | 5.5 | > 10 | 80 | 80 | 70 | – |
| Nc1nc(N)c(CCC[C@H](O)c2ccc(C(=O)N[C@@H](CCC(=O)O)C(=O)O)cc2)c(=O)[nH]1 | > 100 | > 10 | > 10 | – | – | – | – |
| CO[C@@H](CCCc1c(N)nc(N)[nH]c1=O)c1ccc(C(=O)N[C@@H](CCC(=O)O)C(=O)O)cc1 | > 100 | > 10 | > 10 | 900 | 700 | 900 | – |
| Nc1nc(N)c(CCCCc2ccc(C(=O)N[C@@H](CCC(=O)O)C(=O)O)cc2)c(=O)[nH]1 [DIDEAZAACYCLOTETRAHYDROFOLIC ACID] | 20 | > 10 | > 10 | 3600 | 2700 | > 100000 | – |
| Nc1nc2c(c(=O)[nH]1)C[C@@H](CCc1ccc(C(=O)N[C@@H](CCC(=O)O)C(=O)O)cc1)CN2 [LOMETREXOL] | > 100 | > 10 | > 10 | – | – | > 100000 | – |
